Data reported in US8207167B2, “Aryl-phenyl-sulfonamide-phenylene compounds and their use” (PIMCO 2664 Limited, priority 2008, dated 2012).
≈ marks a conversion by molar mass, not a printed value.

Assays:
[1] = tested on: J774 macrophages; assay: Alamar Blue macrophage J774 viability assay; assay type: cell-based; conditions: Mus musculus, 72 hours culture with compound, Alamar Blue read-out
Experimental: (§1) Initial screening of candidate compounds was performed using in vitro assays to determine potency, metabolic stability and solubility in biologically relevant fluids. Potency was assessed using a viability assay based on the survival of the J774 macrophage cell line. Macrophages are closely related to osteoclasts and have been used previously as a model system for osteoclast survival (see, e.g., Luckman et al., 1998). Like osteoclasts, J774 macrophages are dependent on continued NFκB activation for survival, thereby providing a valuable screen for compounds with anti-inflammatory activity. Metabolic stability was measured by determining the rate of disappearance of compound in the presence of human liver microsomal preparations, as quantified by LC-MS/MS. Solubility was measured by equilibration of the compound in fasted state simulated intestinal fluid (FaSSIF) and quantified by HPLC.
In vitro potency as anti-inflammatory agents was determined for a number of APSAP compounds by incubation with J774 macrophages and subsequent determination of cell viability.
J774 cells were plated at 10^4 cells per well in 100 μL αMEM (α Modified Eagle Medium) in 96-well plates and grown overnight. The next day, test compounds were added to the cultures, and cultures were continued for another 72 hours. At the end of the culture period, cell survival was determined using an Alamar Blue assay as previously described (see, e.g., Nociari et al., 1998).
Alamar Blue is an oxidation-reduction sensitive indicator. The dye itself is in the oxidised state, which is blue and non-fluorescent. The dye can accept electrons from reducing species, such as NADPH and FADH, to form a reduced dye species, which is red and fluorescent. Thus the transformation from oxidised form to reduced form can be measured by fluorimetric or colourimetric means. For fluorescence measurements, 530-560 nm excitation and 590 nm emission wavelengths are typically used. For colourimetric measurements, absorbance at 570 nm (reduced form) and 600 nm (oxidised form) is typically measured. A simple calculation is performed to determine the relative quantities of the two species.
A high ratio of the reducing species, NADPH and FADH, to the corresponding oxidised species, NADP and FAD, is an indicator that cells are proliferating and viable. A low ratio indicates cells that are quiescent or non-viable.
Briefly, Alamar Blue (Biosource International) was added undiluted to each well (1:10 v/v, 10 μL). The plate was incubated at 37° C. for 3-4 hours and the fluorescence was measured at 590 nm, with a 25 nm bandwidth. A high reading indicated cells with normal viability, and a low reading indicated cells that have been damaged and are no longer proliferating normally. The controls gave a high fluorescence reading, indicating a high number of live, healthy cells. A potent test compound gave a low fluorescence reading.
The average results for each test compound (n=5) were expressed as a percent (%) of the average control value.
Addition of Compounds. All of the compounds studied were made up as 100 mM solutions in DMSO. These stock solutions were then diluted 1000-10000× in culture medium (αMEM). From these 100 μM or 10 μM solutions, convenient quantities (3-33 μL) were added directly to the wells so as to give the desired final compound concentration.

[2] = Thermodynamic aqueous solubility in fasted state simulated intestinal fluid (FaSSIF); assay type: physicochemical; conditions: fasted state simulated intestinal fluid (FaSSIF), pH 6.5, thermodynamic from solid, 25° C., 24 hours equilibration, HPLC
Experimental: as §1
Thermodynamic aqueous solubility was measured by equilibration of a number of APSAP compounds, in the solid state, with fasted state simulated intestinal fluid (FaSSIF) and quantified by HPLC. Measurement of solubility in FaSSIF provides a valuable model for the prediction of drug dissolution following oral administration.
Preparation of blank FaSSIF: NaOH pellets (174 mg), NaH2PO4.2H2O (2.235 g), and NaCl (3.093 g) were dissolved in 500 mL of water. The pH was adjusted to 6.5 using 1 M NaOH solution.
Preparation of FaSSIF: Sodium taurocholate (165 mg) was dissolved in 25 mL blank FaSSIF. 0.6 mL of a solution containing 100 mg/mL lecithin in methylene chloride was added. The methylene chloride was eliminated under vacuum at about 40° C. The vacuum was drawn for 15 minutes at 250 mbar, followed by 15 minutes at 100 mbar. […] After cooling to room temperature, the solution was then adjusted to 100 mL with blank FaSSIF.
The suspension was equilibrated at 25° C. for 24 hours, and then the pH was measured. The suspension was then filtered through a glass fibre C filter into a 96-well plate. The filtrate was then diluted by a factor of 100. Quantification was made by HPLC with reference to a standard solution of compound at approximately 0.1 mg/mL in DMSO. Different volumes of the standard, diluted and undiluted sample solutions were injected. The solubility was calculated using the peak areas determined by integration of the peak found at the same retention time as the principal peak in the standard injection. Analysis was performed on an Agilent HP1100 series system equipped with a diode array detector and using ChemStation software vB.02.01-SR1.

CNC(CO)c1cccc(NS(=O)(=O)c2ccc(-c3ccc(F)cc3F)cc2)c1 (centres unmarked) [ABD789, 2′,4′-Difluoro-N-(3-(2-hydroxy-1-(methylamino)ethyl)phenyl)biphenyl-4-sulfonamide]
IC50 [1]: 140 nM | solubility at 24 h [2]: 520 µg/mL (≈ 1240 µM)
